Experimental data: the NIST ThermoML archive (doi:10.1016/j.jct.2014.01.004)

Columns and labels:
[1] = for viscosity / speed of sound / mass density: 101.33 kPa, Liquid; for viscosity: Falling or rolling sphere viscometry; for speed of sound: Sing-around technique in a fixed-path interferometer; for mass density: Vibrating tube method
[2] = Molar enthalpy of transition or fusion; conditions: Crystal; DSC

O=C[O-].[NH3+]CCCO [3-hydroxypropylammonium formate]
[1]
Conditions	Glass transition temperature [°C]	mass density [kg/m3]	speed of sound [m/s]	viscosity [mPa·s]
293.15 K	–	1148.29	1824.3	339.04
298.15 K	–	1145.84	1816.3	257.15
303.15 K	–	1143.39	1808.3	198.39
308.15 K	–	1140.95	1800.5	154.49
313.15 K	–	1138.53	1792.3	122.56
318.15 K	–	1136.12	1785.2	98.17
323.15 K	–	1133.73	1776.4	79.84
328.15 K	–	1131.34	1768.3	65.37
333.15 K	–	1128.97	1760.4	53.98
338.15 K	–	1126.61	1752.5	45.36
343.15 K	–	1124.25	1744.7	38.38
DTA	-24.00	–	–	–

O=C([O-])C(F)(F)F.[NH3+]CCCO [3-hydroxypropylammonium trifluoroacetate]
[1]
Conditions	Glass transition temperature [°C]	mass density [kg/m3]	speed of sound [m/s]	viscosity [mPa·s]
293.15 K	–	1311.44	1487.9	1430.2
298.15 K	–	1307.81	1476.5	970.33
303.15 K	–	1304.2	1465.5	677.32
308.15 K	–	1300.58	1454.9	483.03
313.15 K	–	1296.96	1444.5	352.31
318.15 K	–	1293.34	1434.3	262.07
323.15 K	–	1289.72	1424.2	198.79
328.15 K	–	1286.1	1413.9	153.05
333.15 K	–	1282.49	1403.6	119.86
338.15 K	–	1278.88	1393.2	94.92
343.15 K	–	1275.25	1382.8	76.72
DTA	-28.00	–	–	–

CC(=O)[O-].CCC[NH3+] [propylammonium acetate]
[1]
Conditions	Glass transition temperature [°C]	mass density [kg/m3]	speed of sound [m/s]	viscosity [mPa·s]
293.15 K	–	989.97	1517.1	932.22
298.15 K	–	986.91	1508	627.41
303.15 K	–	983.85	1497.1	435.42
308.15 K	–	980.77	1487.6	309.95
313.15 K	–	977.69	1477	226.35
318.15 K	–	974.6	1467.8	167.69
323.15 K	–	971.5	1457.5	128.15
328.15 K	–	968.4	1447.9	99.03
333.15 K	–	965.3	1437.3	78.03
338.15 K	–	962.17	1427.4	61.96
343.15 K	–	959.03	1417.5	50.02
DTA	-26.00	–	–	–

CC(=O)[O-].[NH3+]CCCO [3-hydroxypropylammonium acetate]
[1]
Conditions	Glass transition temperature [°C]	mass density [kg/m3]	speed of sound [m/s]	viscosity [mPa·s]
293.15 K	–	1114.58	1779.8	4261.7
298.15 K	–	1112.02	1770.8	2827
303.15 K	–	1109.46	1761.9	1937
308.15 K	–	1106.91	1753.3	1348.5
313.15 K	–	1104.36	1745.2	970.9
318.15 K	–	1101.8	1736.4	714.44
323.15 K	–	1099.24	1727.8	526
328.15 K	–	1096.68	1719.3	400.11
333.15 K	–	1094.13	1710.3	305.97
338.15 K	–	1091.59	1702.8	238.21
343.15 K	–	1089.03	1693.6	190.4
DTA	-26.00	–	–	–

CCC[NH3+].O=C[O-] [propylammonium formate]
[1]
Conditions	mass density [kg/m3]	speed of sound [m/s]	viscosity [mPa·s]
293.15 K	996.18	1553.1	96.77
298.15 K	993.47	1542.7	78.6
303.15 K	990.77	1532.4	63.58
308.15 K	988.09	1522.2	52.67
313.15 K	985.42	1512	43.97
318.15 K	982.75	1501.8	37.16
323.15 K	980.1	1491.7	31.43
328.15 K	977.45	1481.6	26.92
333.15 K	974.8	1471.7	23.32
338.15 K	972.15	1461.8	20.18
343.15 K	969.49	1452	17.57

Conditions	Normal melting temperature [°C]
[1], Crystal, DTA	34.00

Conditions	Molar enthalpy of transition or fusion [kcal/mol]
[2]	2.17
